The assay deals with NCI-H226 cells. Nature of the assay: Antiproliferation assay (2D adherent cell viability, CellTiter-Glo). It counts as cell-based. Conditions: Homo sapiens, 120 h, 5 days treatment, cell viability by CellTiter-Glo. The method, then:
The compounds were evaluated in vitro. In addition, an anti-proliferation assay was performed using NCI-H226 cells (FIG. 2).
The mixture of 2-fluoro-5-nitrobenzonitrile (1 g, 6.0 mmol), cyclohexanamine (0.6For 2D adherent cell viability experiment, the cells were seeded at 384-well plate (Corning, no. 3570) at the density of 200 cells/well. The next day, compounds were added using Janus workstation (PerkinElmer). After 5 days treatment, the cell viability was measured by CellTiter-Glo kit (Promega, no. G7570) as the manufacturer recommended.
On the technique in general: ATP-based viability assays read luminescence as a measure of living cells.
Consider `C=CC(=O)Nc1ccc(Nc2ccc(C(F)(F)F)cc2)c(-c2cc[nH]c(=O)c2)c1` [Compound A-14, N-(3-(2-oxo-1,2-dihydropyridin-4-yl)-4-(4-(trifluoromethyl)phenylamino)phenyl)acrylamide], for which the 50% inhibitory concentration (IC50) (usually the point on the concentration scale where inhibition reaches its midpoint) was 1100 nM.

On to `C=CC(=O)Nc1ccc(Nc2ccc(C(F)(F)F)cc2)c(-c2nccc(OCCO)n2)c1` [Compound A-11, N-(3-(4-(2-hydroxyethoxy)pyrimidin-2-yl)-4-(4-(trifluoromethyl)phenylamino)phenyl)acrylamide], for which the IC50 is 40 nM.

`C=CC(=O)Nc1ccc(Nc2ccc(C(F)(F)F)cc2)c(-c2ncccn2)c1` [Compound A-21, N-(3-(pyrimidin-2-yl)-4-(4-(trifluoromethyl)phenylamino)phenyl) Acrylamide] gave a half-inhibitory concentration (IC50) of 4 nM.

Take `C=CC(=O)Nc1ccc(Nc2ccc(C(F)(F)F)cc2)c(-c2cccnn2)c1` [Compound A-13, N-(3-(pyridazin-3-yl)-4-(4-(trifluoromethyl)phenylamino)phenyl) acrylamide]: the half-inhibitory concentration (IC50) turned out to be 31 nM.

For `C=CC(=O)Nc1ccc(Nc2ccc(C(F)(F)F)cc2)c(-c2nccc(N3CCC(O)C3)n2)c1` (stereo not shown) [Compound A-7, N-(3-(4-(3-hydroxypyrrolidin-1-yl)pyrimidin-2-yl)-4-(4-(trifluoromethyl)phenylamino)phenyl)acrylamide], half-maximal inhibition (IC50) required 17 nM.

Regarding `C=CC(=O)Nc1cnc(Oc2ccc(C(F)(F)F)cc2)c(-c2ncccn2)c1` [Compound A-12, N-(5-(pyrimidin-2-yl)-6-(4-(trifluoromethyl)phenoxy)pyridin-3-yl)acrylamide], the IC50 was 14 nM.

Regarding `C=CC(=O)Nc1ccc(NC2CCC(F)(F)CC2)c(-c2ncccn2)c1` [Compound A-5, N-(4-(4,4-difluorocyclohexylamino)-3-(pyrimidin-2-yl)phenyl)acrylamide], the IC50 came out at 8 nM.

Values taken from patent publication US20240124406A1, “INHIBITORS OF TRANSCRIPTIONAL ENHANCED ASSOCIATE DOMAIN (TEAD) AND USES THEREOF” (Dana-Farber Cancer Institute, Inc., priority 2020, published 2024).
